Assay results from patent publication US11274083B2, “Substituted thiophenyl uracils, salts thereof and the use thereof as herbicidal agents” (Syngenta Crop Protection AG, priority 2017, dated 2022).

Legend:
Type in all cases: in vivo
[1] = test system: Matricaria inodora; test: Herbicidal action post-emergence, greenhouse pot test; details: application rate 20 g/ha
Procedure, shortened: (§1)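 Greenhouse; sandy loam; one-leaf stage; WP or EC formulation; 80 g/ha or lower; 0.5% additive; 600 L/ha; visual % kill at about 3 weeks relative to untreated.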

[2] = test system: Amaranthus retroflexus; test: as above; details: application rate 20 g/ha
Procedure, shortened: as §1

[3] = test system: Echinochloa crus-galli; test: as above; details: application rate 20 g/ha
Procedure, shortened: as §1

[4] = test system: Setaria viridis; test: as above; details: application rate 20 g/ha
Procedure, shortened: as §1

[5] = test system: Lolium rigidum; test: as above; details: application rate 20 g/ha
Procedure, shortened: as §1

[6] = test system: Pharbitis purpurea; test: as above; details: application rate 20 g/ha
Procedure, shortened: as §1

[7] = test system: Alopecurus myosuroides; test: as above; details: application rate 20 g/ha, scored visually after about 3 weeks vs untreated controls
Procedure, shortened: as §1

[8] = test system: Veronica persica; test: as above; details: application rate 20 g/ha
Procedure, shortened: as §1

[9] = test system: Polygonum convolvulus; test: as above; details: application rate 20 g/ha
Procedure, shortened: as §1

[10] = test system: Viola tricolor; test: as above; details: application rate 20 g/ha
Procedure, shortened: as §1

[11] = test system: Abutilon theophrasti; test: as above
Procedure, shortened: as §1

[12] = test system: Stellaria media; test: as above; details: application rate 20 g/ha
Procedure, shortened: as §1

[13] = test system: Glycine max; test: Crop compatibility post-emergence, greenhouse pot test; details: application rate 5 g/ha
Procedure, shortened: (§2)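 Crops grown in sandy loam in greenhouse pots; treated post-emergence at one-leaf stage, 2–3 weeks after sowing, spraying WP or EC formulations as aqueous suspension/emulsion with 0.5% additive at 600 L/ha. Damage scored visually after about 3 weeks against untreated controls (0% = like control, 100% = dead).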

[14] = test system: Triticum aestivum; test: as above
Procedure, shortened: as §2

[15] = test system: Oryza sativa; test: as above
Procedure, shortened: as §2

[16] = test system: Digitaria sanguinalis; test: Herbicidal action post-emergence, greenhouse pot test; details: application rate 20 g/ha
[17] = test system: Zea mays; test: Crop compatibility post-emergence, greenhouse pot test
Procedure, shortened: as §2

Glycine max (Efficacy in %) [13] [%] | Triticum aestivum (Efficacy in %) ([14]; application rate 5 g/ha) [%] | Oryza sativa (Efficacy in %) ([15]; application rate 20 g/ha) [%] | SMILES | Matricaria inodora (Efficacy in %) [1] [%] | Amaranthus retroflexus (Efficacy in %) [2] [%] | Echinochloa crus-galli (Efficacy in %) [3] [%] | Setaria viridis (Efficacy in %) [4] [%] | Pharbitis purpurea (Efficacy in %) [6] [%] | Alopecurus myosuroides (Efficacy in %) [7] [%] | Veronica persica (Efficacy in %) [8] [%] | Polygonum convolvulus (Efficacy in %) [9] [%] | Viola tricolor (Efficacy in %) [10] [%] | Stellaria media (Efficacy in %) [12] [%] | Digitaria sanguinalis (Efficacy in %) [16] [%] | Abutilon theophrasti (Efficacy in %) ([11]; application rate 70 g/ha) [%] | also measured
20 | 20 |  | CNC(=O)CCOC(=O)C(C)Sc1cc(-n2c(=O)cc(C(F)(F)F)n(C)c2=O)c(F)cc1Cl (stereo not drawn) [I.1-152] | 100 | 100 | 100 | 100 | 100 | 80 | 100 | 100 | 100 | 100 | 100 |  | Lolium rigidum (Efficacy in %) [5]: 80%; Abutilon theophrasti (Efficacy in %) ([11]; application rate 20 g/ha): 100%; Oryza sativa (Efficacy in %) ([15]; application rate 5 g/ha): 10%
20 | 20 | 20 | CCCCC(Sc1cc(-n2c(=O)cc(C(F)(F)F)n(C)c2=O)c(F)cc1Cl)C(=O)OCCC(=O)OCc1ccccc1 (stereo not drawn) [I.47-6] |  | 100 |  | 100 | 100 |  | 100 | 100 | 100 | 80 | 80 | 100 | Zea mays (Efficacy in %) ([17]; application rate 20 g/ha): 20%
20 |  | 10 | CCC(Sc1cc(-n2c(=O)cc(C(F)(F)F)n(C)c2=O)c(F)cc1Cl)C(=O)OCCC(=O)OCc1ccccc1 (stereo not drawn) [I.2-6] | 100 | 100 | 100 | 100 | 100 | 80 | 100 | 100 | 100 | 100 | 80 | 100 | Triticum aestivum (Efficacy in %) ([14]; application rate 20 g/ha): 20%; Zea mays (Efficacy in %) ([17]; application rate 5 g/ha): 0%
